Converted amounts (≈) assume the structure as drawn. “Also recorded” adds a separate entry of the source. Where a name gives a salt, the structure may show the parent alone.
What was measured:
[1] = Dynamic solubility in water (Example 11); type: physicochemical
Procedure: 12 mg of hydrochloride Form CS3 prepared in the present disclosure and the hydrochloride Form A in CN105849100A were accurately weighed and placed in vials, followed by adding 1.2 mL of water. The samples were rotated at 30 rpm on a rotator and sampled at 1 hour, 4 hours, and 24 hours. After centrifugation with 0.45 urn polytetrafluoroethylene (PTFE) filters, the filtrates were collected for HPLC analysis.

[2] = Storage stability of crystalline forms (XRPD, HPLC); type: physicochemical; conditions: for purities after storage: all storage conditions tested for the form; for Purity after storage: initial purity 99.24%
Procedure: The hydrochloride Form CS1 prepared by the present disclosure was stored under 25° C./60% RH and 40° C./75% RH for 1 month. The crystalline forms were checked by XRPD before and after storing.
(§1) Three samples of hydrochloride Form CS3 prepared by the present disclosure were stored in open dishes under conditions of 25° C./60% RH, 40° C./75% RH for 1 month, and 60° C./75% relative humidity for 2 weeks. The crystalline forms and the chemical purities were checked by XRPD and HPLC before and after storing.
as §1, with “CS4” for “CS3”, “RH for two weeks,” for “RH,”, “HPLC respectively” for “HPLC”
[…] The crystalline forms and chemical purities were checked by HPLC and XRPD before and after storing.

[3] = Phase I studies; cited from earlier work
[4] = test system: influenza virus infection; conditions: Completed Phase IIa studies; cited from earlier work
[5] = Dynamic solubility in FaSSIF and FeSSIF (Example 22); type: physicochemical
Procedure: The crystallite form CS3 of compound I of the present disclosure and free form Form A in CN105849100A are prepared into saturated solutions in pH-5.0 FeSSIF (Fed state simulated intestinal fluids) and pH=6.5 FaSSIF (Fasted state simulated intestinal fluids). The content of the sample in the saturated solution was determined by high performance liquid chromatography (HPLC) after equlibrated for 1, 4 and 24 hours.

[6] = Dynamic solubility, saturated solution in pure water (Example 17); type: physicochemical; conditions: for Solubility: pure water
Procedure: Hydrochloride Form CS4 of the present disclosure and hydrochloride Form A in CN105849100A were prepared into saturated solution in pure water. The content of the sample in the saturated solution was determined by high performance liquid chromatography (HPLC) after 1, 4 and 24 hours. The solubility data of hydrochloride Form CS4 of the present disclosure and hydrochloride Form A in CN105849100A are shown in Table 12.

[7] = Mechanical stability (grinding, XRPD); type: physicochemical; conditions: ground in an agate mortar for about 2 minutes
Procedure: About 10 mg of hydrochloride Form CS1 of the present disclosure was taken and ground in an agate mortar for about 2 minutes.

[8] = 25° C./60% RH, Five months, open dish
[9] = 40° C./75% RH, Five months, open dish

O=C(O)[C@H]1C2CCC(CC2)[C@@H]1Nc1nc(-c2c[nH]c3ncc(F)cc23)ncc1F [Hydrochloride Form CS3]
Solubility ([1]; 1 hour): 2.5 µg/mL
Solubility ([1]; 4 hours): 46.0 µg/mL
Solubility ([1]; 24 hours): 15.0 µg/mL
solubility, times higher than hydrochloride Form A in CN105849100A ([1]; after 1, 4 and 24 hours): 6-51 times
Change of crystalline form ([2]; 25° C./60% RH, Seven months, open dish): Unchanged
time for which the form is stable ([2]; 25° C./60% RH, listed as hydrochloride Form CS3): at least 7 months
time for which the form is stable ([2]; 40° C./75% RH, listed as hydrochloride Form CS3): at least 1 month
time for which the form is stable ([2]; 60° C./75% RH): at least 2 weeks
Change of crystalline form ([2]; 60° C./75% RH, Two weeks, open dish): Unchanged
purities after storage [2]: above 98%

O=C(O)[C@H]1C2CCC(CC2)[C@@H]1Nc1nc(-c2c[nH]c3ncc(F)cc23)ncc1F [VX-787, (2S,3S)-3-((5-Huoro-2-(5-fluoro-1.171-pyrrolo[2,3-b]pyridin-3-yl)pyrimidin-4-yl)amino) bicyclo[2.2.2]octane-2-carboxylic acid]
tolerance [3]: good tolerance
virological and clinical evaluation of influenza virus infection [4]: statistical significance

O=C(O)[C@H]1C2CCC(CC2)[C@@H]1Nc1nc(-c2c[nH]c3ncc(F)cc23)ncc1F [Form CS3 of Compound I]
Change of crystalline form [2, 8]: Five months Unchanged
Purity after storage [2, 8]: 99.28%
time for which the form is stable ([2]; 25° C./60% RH, listed as Crystalline form CS3 of compound I): at least 5 months
time for which the form is stable ([2]; 25° C./60% RH, listed as crystalline form CS3 of compound I): at least 5 months
Change of crystalline form [2, 9]: Five months Unchanged
Purity after storage [2, 9]: 99.26%
time for which the form is stable ([2]; 40° C./75% RH, listed as Crystalline form CS3 of compound I): at least 5 month
time for which the form is stable ([2]; 40° C./75% RH, listed as crystalline form CS3 of compound I): at least 5 month
Solubility FaSSIF ([5]; FaSSIF pH=6.5, 1 hour): 110 µg/mL (≈ 275 µM)
Solubility FaSSIF ([5]; FaSSIF pH=6.5, 4 hours): 210 µg/mL (≈ 526 µM)
Solubility FaSSIF ([5]; FaSSIF pH=6.5, 24 hours): 200 µg/mL (≈ 501 µM)
solubility, times higher than Form A in CN105849100A ([5]; FaSSIF, 1, 4 and 24 hours): 6-16 times
Solubility FeSSIF ([5]; FeSSIF pH 5.0, 1 hour): 210 µg/mL (≈ 526 µM)
Solubility FeSSIF ([5]; FeSSIF pH 5.0, 4 hours): 290 µg/mL (≈ 726 µM)
Solubility FeSSIF ([5]; FeSSIF pH 5.0, 24 hours): 250 µg/mL (≈ 626 µM)
solubility, times higher than Form A in CN105849100A ([5]; FeSSIF, 1, 4 and 24 hours): 4-11 times

O=C(O)[C@H]1C2CCC(CC2)[C@@H]1Nc1nc(-c2c[nH]c3ncc(F)cc23)ncc1F [Hydrochloride Form CS4]
Change of crystalline form ([2]; 25° C./60% RH, Two weeks, open dish): Unchanged
time for which the form is stable ([2]; 25° C./60% RH, listed as hydrochloride Form CS4): at least 2 weeks
time for which the form is stable ([2]; 40° C./75% RH, listed as hydrochloride Form CS4): at least 1 month
purities after storage [2]: above 98%
Solubility ([6]; 1 hour): 85 µg/mL
Solubility ([6]; 4 hours): 75 µg/mL
Solubility ([6]; 24 hours): 94 µg/mL
solubility, times higher than hydrochloride Form A of CN105849100A ([6]; water, after 1, 4 and 24 hours): 38-283 times

O=C(O)[C@H]1C2CCC(CC2)[C@@H]1Nc1nc(-c2c[nH]c3ncc(F)cc23)ncc1F [Hydrochloride Form CS1]
time for which the form is stable ([2]; 25° C./60% RH): at least 1 months
Change of crystalline form ([2]; 25° C./60% RH, One month): Unchanged
time for which the form is stable ([2]; 25° C./60% RH, listed as hydrochloride Form CS1): at least 1 months
time for which the form is stable ([2]; 40° C./75% RH): at least 1 month
Change of crystalline form ([2]; 40° C./75% RH, One month): Unchanged
time for which the form is stable ([2]; 40° C./75% RH, listed as hydrochloride Form CS1): at least 1 month
purities after storage [2]: above 98%
crystalline form change after grinding [7]: no form change is observed; also recorded: No crystalline form change

O=C(O)[C@H]1C2CCC(CC2)[C@@H]1Nc1nc(-c2c[nH]c3ncc(F)cc23)ncc1F [Free Form Form A in CN105849100A, reference compound]
Solubility FaSSIF ([5]; FaSSIF pH=6.5, 1 hour): 7 µg/mL (≈ 17.5 µM)
Solubility FaSSIF ([5]; FaSSIF pH=6.5, 4 hours): 13 µg/mL (≈ 32.5 µM)
Solubility FaSSIF ([5]; FaSSIF pH=6.5, 24 hours): 31 µg/mL (≈ 77.6 µM)
Solubility FeSSIF ([5]; FeSSIF pH 5.0, 1 hour): 18 µg/mL (≈ 45.1 µM)
Solubility FeSSIF ([5]; FeSSIF pH 5.0, 4 hours): 30 µg/mL (≈ 75.1 µM)
Solubility FeSSIF ([5]; FeSSIF pH 5.0, 24 hours): 57 µg/mL (≈ 143 µM)

O=C(O)[C@H]1C2CCC(CC2)[C@@H]1Nc1nc(-c2c[nH]c3ncc(F)cc23)ncc1F [Hydrochloride Form A in CN105849100A, reference compound]
Solubility ([1]; 1 hour): 0.3 µg/mL
Solubility ([1]; 4 hours): 0.9 µg/mL
Solubility ([1]; 24 hours): 2.5 µg/mL
Solubility ([6]; 1 hour): 0.3 µg/mL
Solubility ([6]; 4 hours): 0.9 µg/mL
Solubility ([6]; 24 hours): 2.5 µg/mL
